Measurements: patent publication US20100255580A1, “Differentiation of Human Embryonic Stem Cells” (LIFESCCAN, INC., priority 2007, published 2010)

Assays:
[1] = tested on: human embryonic stem cell line H1; assay: FACS analysis of protein expression following activin A treatment, H1; format: cell-based; conditions: 5-day AA treatment
Description: The level of expression of definitive endoderm markers was examined by PCR (FIG. 1), FACS (results summarized in Table II), and immunohistochemistry (FIG. 2).
CXCR4 positive cells were also highly positive for C-kit, EPCAM, CD99, and negative for CD9. The expression pattern for these markers was consistent among all three hES cell lines examined (Table IIB for H7 and Table IIC for H1). […] In parallel, almost 100% of the differentiated cells were […] (FIG. 2).
Adhered cells were removed from culture plates by five-minute incubation with TrypLE™ Express solution (Invitrogen, CA). Released cells were resuspended in human embryonic stem cell culture medium and recovered by centrifugation, followed by washing and resuspending the cells in a staining buffer consisting of 2% BSA, 0.05% sodium azide in PBS (Sigma, MO). As appropriate, the cells were Fc-receptor blocked for 15 minutes using a 0.1% γ-globulin (Sigma) solution. […] Controls included appropriate isotype matched antibodies, unstained cells, and cells stained only with secondary conjugated antibody. All incubations with antibodies were performed for 30 mins at 4° C. after which the cells were washed with the staining buffer. Samples that were stained with unconjugated primary antibodies were incubated for an additional 30 mins at 4° C. with secondary conjugated PE or -APC labeled antibodies. See Table I for a list of secondary antibodies used. Washed cells were pelleted and resuspended in the staining buffer, and the cell surface molecules were identified using a FACS Array (BD Biosciences) instrument, collecting at least 10,000 events.

[2] = tested on: human embryonic stem cell line H9; assay: Real-time PCR of marker gene expression, H9 on MEF (Examples 2-7); format: cell-based
Protocol: Cells were harvested at the time points indicated in FIG. 3 and assayed by PCR for the expression of genes shown (FIGS. 3, 4 and 5).
After this time interval, the cells were then treated for six days with combinations of retinoic acid and FGF as outlined in Example 2, then the culture medium was removed and replaced with medium comprising DMEM/F12 with 2% FBS, containing the γ-secretase inhibitors L-685,458 at 10 μM for three days.
Cells were continuously cultured for another 3 to 5 days in basal medium with retinoic acid at 1 μM, alone or with bFGF. RNA samples were harvested from cells at various time points along this process to help evaluate the directed differentiation of the cells. Furthermore, culture medium and factors were regularly removed and replenished throughout the differentiation protocol.
RNA extraction, purification, and cDNA synthesis. RNA samples were purified by binding to a silica-gel membrane (Rneasy Mini Kit, Qiagen, CA) in the presence of an ethanol-containing, high-salt buffer followed by washing to remove contaminants. The RNA was further purified using a TURBO DNA-free kit (Ambion, INC), and high-quality RNA was then eluted in water. Yield and purity were assessed by A260 and A280 readings on a spectrophotometer. cDNA copies were made from purified RNA using an ABI (ABI, CA) high capacity cDNA archive kit.
Real-time PCR amplification and quantitative analysis.
Final data were expressed relative to a calibrator sample.

## Activin A: a member of the TGFβ superfamily; R&D Systems; Group 2 = Activin A (100 ng/ml)
[1]
  CXCR4+: 92.78%
  CXCR4+/C-kit+: 92.90%
  CXCR4+/CD9+: 7.03%
  CXCR4+/CD99+: 88.78%
  CXCR4+/EPCAM: 87.99%
[2]; 50 ng/ml activin A with 50 ng/ml basic FGF and 1 μM Retinoic Acid
  increase of Nkx2.2 expression compared to samples without activin A: about 35 fold
[2]; Activin A 100 ng/ml up to seven days, 0% to 2% serum
  Pdx1 gene expression: no Pdx1 gene expression was observed
[2]; H9, activin A 100 ng/ml
  expression of Brachyury: decreased
  expression of the neuronal marker Zic1: no effect
[2]; H9, activin A 100 ng/ml, one to seven days
  expression of the extraembryonic endoderm markers Sox7 and AFP: time-dependent decrease
[2]; H9, activin A 100 ng/ml, three and five days
  anterior endoderm markers, Cerberus, Otx-1 and Hex genes: significant up regulation
[2]; H9 line, activin A 100 ng/ml, two, five and eight days
  expression of CXCR4, GATA4, HNF-3beta, Mix11 and Sox-17 mRNA: time-dependent increase
[2]; activin A alone or in combination with retinoic acid and FGFs
  expression of Ngn3 or Insulin: did not induce
[2]; activin A or retinoic acid alone
  expression of Pdx1: did not induce
